Active and inactive are the calls of the source. The rule behind the calls is not given here. *1 amine or outer side, *2 acyl side, *3 side chain or, on linkers, in order; H or OH if unused. Where a SMILES comes first, the peptide text is derived from it. Bridges are numbered along the chain shown (N, C = ends). oXylylene = c1ccc(C[*:2])c(C[*:1])c1
How the values were obtained:
Interleukin-17A [1] = target: T1, Interleukin-17A (Homo sapiens, UniProt Q16552); experiment: Binding affinity to human IL-17A assessed as dissociation constant in PBS-T measured after 60 mins by Biolayer interferometry
T1 sequence (Q16552 whole entry): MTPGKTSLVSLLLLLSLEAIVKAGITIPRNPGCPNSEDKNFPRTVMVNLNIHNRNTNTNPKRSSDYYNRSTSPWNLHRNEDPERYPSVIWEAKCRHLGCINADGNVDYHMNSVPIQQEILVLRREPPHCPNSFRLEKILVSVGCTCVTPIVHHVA

[2] = Stability of the compound in 50% human serum assessed as compound decomposition incubated for 24 hrs by SDS-PAGE analysis
[3] = target: T2, Interleukin-17A (Mus musculus) (UniProt Q62386); experiment: Binding affinity to mouse IL-17A
T2 sequence (whole entry): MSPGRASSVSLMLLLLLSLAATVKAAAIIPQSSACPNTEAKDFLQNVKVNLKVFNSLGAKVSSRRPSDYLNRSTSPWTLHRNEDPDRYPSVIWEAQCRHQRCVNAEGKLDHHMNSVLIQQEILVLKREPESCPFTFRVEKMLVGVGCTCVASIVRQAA

[4] = target: T3, Interleukin-17F (Homo sapiens) (UniProt Q96PD4); experiment: Binding affinity to human IL-17F
T3 sequence (whole entry): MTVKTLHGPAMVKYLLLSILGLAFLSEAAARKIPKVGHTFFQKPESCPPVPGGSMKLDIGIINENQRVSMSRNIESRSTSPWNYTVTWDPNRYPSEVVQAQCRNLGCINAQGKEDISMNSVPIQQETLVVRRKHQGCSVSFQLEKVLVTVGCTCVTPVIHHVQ

Interleukin-17A [5] = target: T1, Interleukin-17A; experiment: Binding affinity to biotinylated human IL-17A by SPR analysis

Kd (Interleukin-17A [1])	metabolised at 24 h [2] [%]	also measured	SMILES
Not Active	–	–	CC(C)C[C@H](NC(=O)[C@H](C)NC(=O)[C@@H](NC(=O)[C@H](CC(C)C)NC(=O)[C@H](CC(C)C)NC(=O)[C@H](CCC(=O)O)NC(=O)[C@@H](N)CS)[C@@H](C)O)C(=O)NCC(=O)N[C@@H](Cc1ccc(O)cc1)C(=O)N1CCC[C@H]1C(=O)N[C@H](C(=O)N[C@@H](Cc1ccc(O)cc1)C(=O)N[C@@H](CS)C(=O)O)C(C)C (H-CELLTALGYPVYC-OH)
Not Active	–	–	CC(C)C[C@H](NC(=O)[C@H](CCC(=O)O)NC(=O)[C@@H](N)CS)C(=O)N[C@@H](CC(C)C)C(=O)N[C@H](C(=O)N[C@@H](Cc1ccccc1)C(=O)N[C@@H](C)C(=O)NCC(=O)N[C@@H](Cc1ccc(O)cc1)C(=O)N1CCC[C@H]1C(=O)N[C@H](C(=O)N[C@@H](Cc1ccc(O)cc1)C(=O)N[C@@H](CS)C(=O)O)C(C)C)[C@@H](C)O (H-CELLTFAGYPVYC-OH)
–	9.5	Activity [3]: Active; Activity [4]: inactive	CC(C)C[C@H](NC(=O)[C@H](Cc1ccccc1)NC(=O)[C@@H](NC(=O)[C@H](CC(C)C)NC(=O)[C@H](CC(C)C)NC(=O)[C@H](CCC(=O)O)NC(=O)[C@@H](N)CS)[C@@H](C)O)C(=O)NCC(=O)N[C@@H](Cc1ccc(O)cc1)C(=O)N1CCC[C@H]1C(=O)N[C@H](C(=O)N[C@@H](Cc1ccc(O)cc1)C(=O)N[C@@H](CS)C(=O)O)C(C)C (H-CELLTFLGYPVYC-OH)
–	30.5	–	CC(C)C[C@@H]1NC(=O)[C@H](Cc2ccccc2)NC(=O)[C@H]([C@@H](C)O)NC(=O)[C@H](CC(C)C)NC(=O)[C@H](CC(C)C)NC(=O)[C@H](CCC(=O)O)NC(=O)[C@@H](N)CSCc2ccccc2CSC[C@@H](C(=O)O)NC(=O)[C@H](Cc2ccc(O)cc2)NC(=O)[C@H](C(C)C)NC(=O)[C@@H]2CCCN2C(=O)[C@H](Cc2ccc(O)cc2)NC(=O)CNC1=O (H-CELLTFLGYPVYC-OH; linker 1-13 via oXylylene)
–	–	Kd (Interleukin-17A [5]): Not Active	CC(C)C[C@@H]1NC(=O)[C@H](Cc2ccccc2)NC(=O)[C@H]([C@@H](C)O)NC(=O)[C@H](CC(C)C)NC(=O)[C@H](CC(C)C)NC(=O)[C@H](CCC(=O)O)NC(=O)[C@@H](NC(=O)[C@H](CO)NC(=O)CN)CSSC[C@@H](C(=O)NCC(=O)NCC(=O)NCC(=O)N[C@@H](CO)C(=O)N[C@@H](Cc2cnc[nH]2)C(=O)N[C@@H](Cc2cnc[nH]2)C(=O)N[C@@H](Cc2cnc[nH]2)C(=O)N[C@@H](Cc2cnc[nH]2)C(=O)N[C@@H](Cc2cnc[nH]2)C(=O)N[C@@H](Cc2cnc[nH]2)C(=O)O)NC(=O)[C@H](Cc2ccc(O)cc2)NC(=O)[C@H](C(C)C)NC(=O)[C@@H]2CCCN2C(=O)[C@H](Cc2ccc(O)cc2)NC(=O)CNC1=O (H-GSCELLTFLGYPVYCGGGSHHHHHH-OH; disulfide 3-15)
